Several values for one entry are separate records, joined by “and”; a condition that tells them apart may be missing. Equal entries are not always repeated. Where two headings read alike, the source gives them in different places.
Experiments:
[1] = biological target: T1, human 5-HT3A receptors (Homo sapiens, UniProt P46098); assay: Two-electrode voltage clamp of 5-HT-induced currents in Xenopus oocytes, incl. co-application; type: cell-based; details: for use-dependence of inhibition: 3 μM 5-HT applied at 1 min intervals in continued presence of antagonist; for ratio of current amplitudes at +40 mV relative to −40 mV (voltage-dependence): compared with absence of antagonist, Fig. 2E; for Hill slope: concentration-inhibition curve, 1.7 μM 5-HT; for potency at 5-HT3A relative to GABA and glycine receptors: less potent than at GABA and glycine receptors, ref Huang et al., 2004, Hawthorne et al., 2006
T1 construct: expressed in transfected cells; host or cells: Xenopus laevis oocytes (cRNA from pGEMHE)
T1 sequence (P46098 24-478): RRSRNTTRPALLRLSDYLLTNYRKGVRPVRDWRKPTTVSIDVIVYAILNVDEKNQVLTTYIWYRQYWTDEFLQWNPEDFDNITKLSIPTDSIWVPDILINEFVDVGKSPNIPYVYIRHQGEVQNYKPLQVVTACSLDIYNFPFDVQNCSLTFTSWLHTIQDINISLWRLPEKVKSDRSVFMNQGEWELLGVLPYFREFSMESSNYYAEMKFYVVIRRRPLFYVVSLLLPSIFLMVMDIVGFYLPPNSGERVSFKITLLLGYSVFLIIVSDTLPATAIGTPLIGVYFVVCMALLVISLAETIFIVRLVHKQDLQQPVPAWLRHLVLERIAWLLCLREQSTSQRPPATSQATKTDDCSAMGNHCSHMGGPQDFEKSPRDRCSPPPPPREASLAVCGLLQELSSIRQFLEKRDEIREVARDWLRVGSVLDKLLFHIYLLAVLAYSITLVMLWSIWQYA
Experimental: Stage V and VI oocytes were injected with 50 nl of ∼300 ng μl^−1 cRNA, and currents were recorded 1–4 days post-injection. A ratio of 1:3 (A:B) was used for the expression of heteromeric 5-HT3 receptors.
Xenopus laevis oocyte positive females were purchased from NASCO (Fort Atkinson, Wisconsin, USA) and maintained according to standard methods.
Currents were filtered at a frequency of 1 kHz. Micro-electrodes were fabricated from borosilicate glass (GC120TF-10, Harvard Apparatus, Edenbridge, Kent, UK) using a two stage horizontal pull (P-87, Sutter Instrument Company, California, USA) and filled with 3 M KCl. […] Oocytes were perfused with saline at a rate of 15 ml min^−1. Drug application was via a simple gravity fed system calibrated to run at the same rate. Extracellular saline contained (mM), 96 NaCl, 2 KCl, 1 MgCl2 and 5 mM HEPES; adjusted to pH 7.4 with NaOH.
Analysis and curve fitting was performed using Prism V3.02 (GraphPad Software, San Diego, California, USA, www.graphpad.com). Concentration-response data for each oocyte was normalised to the maximum current for that oocyte. For inhibition curves, antagonists were routinely co-applied in the presence of agonist. For PXN, oocytes were also pre-treated with the compound for 20 s. A 2 min wash was used between drug applications. The mean and S.E.M. for a series of oocytes was plotted against agonist or antagonist concentration and iteratively fitted (GraphPad Prism v3.02) to the following Hill equation:(1) IA=Imin+Imax−Imin/1+10^nH(logA50−logA) where A is the concentration of ligand present; IA is the current in the presence of ligand concentration A; Imin is the current when A = 0; Imax is the current when A = ∞ , A50 is the concentration of A which evokes a current equal to (Imax + Imin)/2; and nH is the Hill coefficient. Results are presented as mean ± S.E.M.. Statistical analysis was performed using ANOVA in conjunction with a Dunnett’s post-hoc test.
97) • Scenario 1: Where compounds share a binding site it was assumed that the extent of binding would be determined by a competitive interaction between the compounds such that the proportion of binding sites occupied (Pocc) in the presence of two competing compounds is given by the following expression: (2) Pocc=AKA+BKB/1+AKA+BKB where A and B are the concentrations of two ligands and KA and KB are their affinity constants respectively.
In each individual experiment, for each combination of inhibitors, data values were obtained for IA, IB and IAB. From IA and IB predicted values of IAB1 and IAB2 were also derived. A two-way ANOVA was performed on values of IAB, IAB1 and IAB2 in which the distinction between IAB, IAB1 and IAB2 was treated as a fixed factor and the variation in levels of inhibition between experiments was treated as a random factor. Where the ANOVA indicated a significant difference (P < 0.05) between IAB, IAB1 and IAB2 a post-hoc analysis was carried out using the Waller–Duncan method to identify homogenous subsets with a significance level of 0.05 and a Type I /Type II error ratio if 100.
Our models were based on the following assumptions: 1. that the channel blocking compounds only effect the response that is seen when the channel is open. […] In the case of condition 5 it is possible that the binding of one compound may prevent access of another to its own site. However, in practice this will not influence the analysis since the functional consequence of the binding of both compounds compared to one will be the same, namely complete channel blockade.

[2] = biological target: T1, human 5-HT3A receptors; type: binding
Experimental: Human embryonic kidney (HEK) 293 cells were maintained on 90 mm tissue culture plates at 37 °C and 7% CO2 in a humidified atmosphere. They were cultured in DMEM:F12 with GlutaMAX™ I media (Dulbecco’s Modified Eagle’s Medium /Nutrient Mix F12 (1:1), Invitrogen, Paisley, UK) containing 10% foetal calf serum. For radioligand binding studies, cells in 90 mm dishes were transfected using polyethyleneimine (PEI): 30 μl PEI (1 mg /ml), 5 μl cDNA and 1 ml DMEM were incubated for 10 min at room temperature, added drop wise to a 80–90% confluent plate, and incubated for 3–4 days before use.
Competition binding (8 point) was performed on at least three separate plates of transfected cells. […] Reactions were incubated for at least 1 h at 4 °C and terminated by vacuum filtration using a Brandel cell harvester onto GF/B filters pre-soaked in 0.3% polyethyleneimine. Radioactivity was determined by scintillation counting using a Beckman BCLS6500 (Fullerton, California, USA). Data were analysed by iterative curve fitting (GraphPad Prism v3.02) according to the equation:(5) BL=Bmin+Bmax−Bmin/1+10^nH(logL50−logL) where L is the concentration of ligand present; BL is the binding in the presence of ligand concentration L; Bmin is the binding when L = 0; Bmax is the binding when L = ∞, L50 is the concentration of L which gives a binding equal to (Bmax + Bmin)/2; and nH is the Hill coefficient. Results are presented as mean ± S.E.M.. Statistical analysis was performed using ANOVA in conjunction with a Dunnett’s post-hoc test.

[3] = GB 300 μM, use-dependency experiment, Fig. 3A

Compound	IC50 [1] [µM]	use-dependence of inhibition ([1]; GB 300 μM)	current on washout ([1]; 6 mM)	ratio of current amplitudes at +40 mV relative to −40 mV (voltage-dependence) [1]	Hill slope [1]	potency at 5-HT3A relative to GABA and glycine receptors [1] [fold]	Effect on binding of [3H]granisetron (1 nM) [2]	Level of inhibition (1 − (I/Imax)) PXN ([1]; PXN 5 μM applied alone)	effect on 5-HT concentration-response curves ([1]; PXN between 1–50 × IC50)	inhibition at 5 µM ([1]; read-out: Level of inhibition (1 − (I/Imax)) PXN, PXN 5 μM applied alone) [%]	Effect on binding of [3H]granisetron (1 nM) ([2]; compound 5 mM)	Level of inhibition (1 − (I/Imax)) GB ([1]; GB 11 μM applied alone)	percentage inhibition measured at peak [1, 3] [%]	percentage inhibition measured during the first application [1, 3] [%]	first 5-HT response as % of the second 5-HT response (recovery) ([1]; after 0.3 mM GB) [%]	Effect on binding of [3H]granisetron (1 nM) ([2]; compound 2.5 mM)
CC(C)(C)[C@]1(O)CC2OC(=O)CC23C(=O)OC2OC(=O)[C@H](O)C231 (stereo partly drawn) [BB, bilobalide]	470	remained stable	transient rebound current was observed	unaltered	1.48 ± 0.16	~100	not affected	–	–	–	–	–	–	–	–	–
C=C(C)[C@@H]1[C@H]2OC(=O)[C@@H]1[C@]1(O)C[C@H]3O[C@]34C(=O)O[C@H]2[C@]14C [PXN, picrotoxinin]	10.7	remained stable	–	unaltered	0.68 ± 0.12	–	–	0.35 ± 0.03	rightwards shifts and a reduction in the maximal current	48 ± 4	not affected	–	–	–	–	–
ginkgolide B [GB]	–	use-dependent	–	unaltered	1.10 ± 0.13	~100	–	–	–	–	–	0.25 ± 0.01 and 0.26 ± 0.05	31 ± 3.1	38 ± 0.8	91 ± 2	not affected

From article PMC3070799 (Neuropharmacology, 2011)
